In patent publication US8492088B2, “Engineering enzymes through genetic selection” (priority 2007, dated 2013):
Like-named read-outs stand apart in the source and are kept apart here.

Assays:
[1] = in vivo; cited from earlier work
[2] = biological target: T1, RXR variant Q275C;I310M;F313I (Homo sapiens, UniProt P19793, F313I/I310M/Q275C); settings: in yeast; previous best LG335 receptor Q275C;I310M;F313I; cited from earlier work
T1 construct: expressed in transfected cells; host or cells: yeast

[3] = biological target: T2, RXR variant I268A; A272V; I310A; F313A; L436F (Homo sapiens, UniProt P19793, A272V/F313A/I268A/I310A/L436F); assay: Mammalian luciferase assay in HEK 293 cells; type: cell-based
T2 construct: expressed in transfected cells; host or cells: HEK 293
Description: (§1) RLU=relative light units.
(§2) Mammalian Luciferase Assay: Performed with HEK 293 cells as previously described, and known in the art.

[4] = biological target: T3, RXR variant I268L; A271V; I310L; F313L (Homo sapiens, UniProt P19793, A271V/F313L/I268L/I310L); assay: Mammalian luciferase assay in HEK 293 cells; type: cell-based
T3 construct: expressed in transfected cells; host or cells: HEK 293
Description: as §1, §2

[5] = biological target: T4, RXR variant I268V; A272V; I310L; F313M (Homo sapiens, UniProt P19793, A272V/F313M/I268V/I310L)
T4 sequence (P19793 227-462 I268V/A272V/I310L/F313M): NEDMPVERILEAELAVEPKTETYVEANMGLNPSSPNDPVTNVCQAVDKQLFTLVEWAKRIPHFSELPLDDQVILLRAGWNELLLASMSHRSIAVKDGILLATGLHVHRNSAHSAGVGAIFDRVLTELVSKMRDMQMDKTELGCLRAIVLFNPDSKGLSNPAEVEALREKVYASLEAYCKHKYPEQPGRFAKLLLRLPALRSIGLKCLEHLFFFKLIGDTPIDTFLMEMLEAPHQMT
Description: (§3) Liquid Media: The method used for quantitation was modified from a method developed by Miller and known in the art.
(§4) The twelve plasmids rescued from the selective plates were retransformed into PJ69-4A to confirm that their phenotype is plasmid linked. The strain PJ69-4A was engineered to contain a Gal4 response element controlling expression of the LacZ gene, in addition to the ADE2 gene. […] The selection assay quantifies yeast growth occurring through transcriptional activation of the ADE2 gene, while the screen quantifies β-galactosidase activity occurring though transcriptional activation of the LacZ gene.

[6] = biological target: RXR variant I268V; A271V; I310L; F313V (Homo sapiens, UniProt P19793, A271V/F313V/I268V/I310L); settings: Yeast
Description: as §3, §4

[7] = biological target: RXR variant I268L; I310V; F313I (Homo sapiens, UniProt P19793, F313I/I268L/I310V); settings: Yeast
Description: as §3, §4

[8] = biological target: RXR variant I268V; A272V; I310M; F313S; L436M (Homo sapiens, UniProt P19793, A272V/F313S/I268V/I310M/L436M); settings: Yeast
Description: as §3, §4

[9] = biological target: RXR variant I268A; I310A; F313A; L436F (Homo sapiens, UniProt P19793, F313A/I268A/I310A/L436F); settings: Yeast, relative to wild type with 10 μM 9cRA
Description: as §3, §4

[10] = biological target: RXR variant I268A; I310M; F313A; L436T (Homo sapiens, UniProt P19793, F313A/I268A/I310M/L436T); settings: Yeast
Description: as §3, §4

[11] = biological target: RXR variant I268L; A271V; I310L; F313L (Homo sapiens, UniProt P19793, A271V/F313L/I268L/I310L); settings: Yeast
Description: as §3, §4

[12] = biological target: RXR variant I268A; A272V; I310A; F313A; L436F (Homo sapiens, UniProt P19793, A272V/F313A/I268A/I310A/L436F); settings: Yeast
Description: as §3, §4

[13] = biological target: RXR variant I268L; I310M; F313V (Homo sapiens, UniProt P19793, F313V/I268L/I310M)
Description: as §3, §4

[14] = biological target: RXR variant I268V; I310V; F313S (Homo sapiens, UniProt P19793, F313S/I268V/I310V); settings: Yeast
Description: as §3, §4

[15] = biological target: T5, RXR variant I268A; I310S; F313V; L436F (Homo sapiens, UniProt P19793, F313V/I268A/I310S/L436F); assay: cell-based; design: species or system yeast
T5 sequence (P19793 225-462 I268A/I310S/F313V/L436F): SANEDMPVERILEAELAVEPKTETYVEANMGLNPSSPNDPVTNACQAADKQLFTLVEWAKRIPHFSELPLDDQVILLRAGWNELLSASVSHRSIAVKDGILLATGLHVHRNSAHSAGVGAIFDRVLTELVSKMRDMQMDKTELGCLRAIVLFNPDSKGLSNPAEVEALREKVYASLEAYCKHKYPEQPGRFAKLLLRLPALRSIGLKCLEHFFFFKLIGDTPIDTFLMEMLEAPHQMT
Description: as §3, §4

[16] = biological target: RXR variant I268A; I310A; F313A; L436F (Homo sapiens, UniProt P19793, F313A/I268A/I310A/L436F)
Description: as §1, §2
(§5) Five variants were chosen for testing in mammalian cell culture for comparison of the activation profiles (I268A;I310A;F313A;L436F,I268V;A272V;I310L;F313M, I268A;I310S;F313A;L436F, I268V;A272V;I310M;F313S;L436M, and I286A;I310M;F313A;L436T). The genes for these variants were removed from yeast expression plasmids and ligated into mammalian expression plasmids.

[17] = biological target: RXR variant I268V; A272V; I310L; F313M (Homo sapiens, UniProt P19793, A272V/F313M/I268V/I310L); remark: listed apart in the source
Description: as §1, §2, §5

[18] = biological target: RXR variant I268V; A272V; I310M; F313S; L436M (Homo sapiens, UniProt P19793, A272V/F313S/I268V/I310M/L436M)
Description: as §1, §2, §5

[19] = biological target: RXR variant I268A; I310M; F313A; L436T (Homo sapiens, UniProt P19793, F313A/I268A/I310M/L436T)
Description: as §1, §2, §5

[20] = biological target: T5, RXR variant I268A; I310S; F313V; L436F; assay: cell-based
[21] = biological target: wild-type RXR (GBD:RXR) (Homo sapiens, UniProt P19793); assay: cell-based
Description: as §3, §4
Three plasmids were used as controls in the screen and selection assays. […] This plasmid provides a measure of background noise in both the selection and screen assays.

[22] = biological target: T6, RXR variant I268A; I310S; F313V; L436F (Homo sapiens, UniProt P19793, F313V/I268A/I310S/L436F); type: cell-based; settings: Yeast, L436F (first line, r10)
T6 construct: express the Gal4 DBD fused with a variant RXR LBD (GBD:RXR); expressed in transfected cells; host or cells: Saccharomyces cerevisiae PJ69-4A
Description: as §3, §4

[23] = biological target: wtRXR (Homo sapiens, UniProt P19793); assay: cell-based
Description: as §1, §2, §5

[24] = system: Heliothis virescens; settings: against Heliothis virescens; cited from earlier work
[25] = system: Gram negative and Gram-positive bacteria; settings: series of Gram negative and Gram-positive bacteria; cited from earlier work
[26] = system: Candida albicans; settings: against Candida albicans; cited from earlier work
[27] = relative to wild type with 10 μM 9cRA
[28] = HEK 293, relative to wild type with 10 μM 9cRA

RXR variant I268L; I310M; F313V, sequence (P19793 227-458 I268L/I310M/F313V limits assumed): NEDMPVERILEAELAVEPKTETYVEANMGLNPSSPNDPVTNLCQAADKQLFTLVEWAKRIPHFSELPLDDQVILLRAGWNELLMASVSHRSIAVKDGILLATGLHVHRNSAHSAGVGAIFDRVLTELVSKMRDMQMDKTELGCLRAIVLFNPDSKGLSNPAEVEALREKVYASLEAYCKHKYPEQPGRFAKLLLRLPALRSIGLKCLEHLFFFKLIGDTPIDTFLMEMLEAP
RXR variant I268L; I310M; F313V, sequence (Q9Y6Q9 1-1413 partner limits assumed): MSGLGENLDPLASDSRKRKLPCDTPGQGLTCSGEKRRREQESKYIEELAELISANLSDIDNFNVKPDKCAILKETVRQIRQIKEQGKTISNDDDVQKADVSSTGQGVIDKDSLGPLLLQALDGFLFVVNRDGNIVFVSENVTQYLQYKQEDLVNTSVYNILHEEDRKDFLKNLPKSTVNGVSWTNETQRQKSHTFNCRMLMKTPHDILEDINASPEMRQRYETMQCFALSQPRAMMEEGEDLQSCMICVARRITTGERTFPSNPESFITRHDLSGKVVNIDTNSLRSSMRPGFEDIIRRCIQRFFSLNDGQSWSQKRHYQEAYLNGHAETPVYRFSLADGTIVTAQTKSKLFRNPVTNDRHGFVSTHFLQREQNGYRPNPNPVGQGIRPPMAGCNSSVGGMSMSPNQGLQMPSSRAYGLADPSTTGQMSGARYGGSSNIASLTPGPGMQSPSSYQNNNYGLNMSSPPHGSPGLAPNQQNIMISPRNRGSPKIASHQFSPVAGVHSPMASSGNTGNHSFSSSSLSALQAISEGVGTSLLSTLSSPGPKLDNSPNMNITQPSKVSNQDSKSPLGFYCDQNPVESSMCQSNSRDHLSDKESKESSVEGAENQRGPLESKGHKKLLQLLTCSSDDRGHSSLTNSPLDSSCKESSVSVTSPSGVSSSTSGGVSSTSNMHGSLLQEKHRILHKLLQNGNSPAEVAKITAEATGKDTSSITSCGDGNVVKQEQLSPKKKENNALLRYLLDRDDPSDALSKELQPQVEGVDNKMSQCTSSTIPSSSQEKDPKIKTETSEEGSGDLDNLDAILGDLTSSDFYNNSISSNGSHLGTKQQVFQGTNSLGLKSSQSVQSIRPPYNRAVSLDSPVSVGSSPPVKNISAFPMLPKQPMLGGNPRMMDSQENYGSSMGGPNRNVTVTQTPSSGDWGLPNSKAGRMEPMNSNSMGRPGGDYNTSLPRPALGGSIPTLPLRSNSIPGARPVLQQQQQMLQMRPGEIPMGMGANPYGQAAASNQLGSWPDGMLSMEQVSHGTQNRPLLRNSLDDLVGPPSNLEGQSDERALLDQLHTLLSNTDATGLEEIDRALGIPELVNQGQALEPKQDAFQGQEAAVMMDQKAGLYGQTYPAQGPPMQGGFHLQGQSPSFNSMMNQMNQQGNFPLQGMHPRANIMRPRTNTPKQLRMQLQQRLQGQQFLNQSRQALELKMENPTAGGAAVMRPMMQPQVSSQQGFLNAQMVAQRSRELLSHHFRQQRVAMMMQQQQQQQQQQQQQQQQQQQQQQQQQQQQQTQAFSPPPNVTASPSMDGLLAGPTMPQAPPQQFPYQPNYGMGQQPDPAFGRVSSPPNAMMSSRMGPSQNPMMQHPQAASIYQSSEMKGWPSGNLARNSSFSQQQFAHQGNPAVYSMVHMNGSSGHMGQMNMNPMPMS
RXR variant I268L; I310V; F313I, sequence (P19793 227-458 I268L/I310V/F313I limits assumed): as the sequence (P19793 227-458 I268L/I310M/F313V limits assumed) above, with M84V, V87I counted along it
RXR variant I268L; I310V; F313I, sequence (Q9Y6Q9 1-1413 partner limits assumed): as the sequence (Q9Y6Q9 1-1413 partner limits assumed) above
wild-type RXR (GBD:RXR), sequence (P19793 227-458 limits assumed): as the sequence (P19793 227-458 I268L/I310M/F313V limits assumed) above, with L42I, M84I, V87F counted along it
wild-type RXR (GBD:RXR), sequence (Q9Y6Q9 1-1413 partner limits assumed): as the sequence (Q9Y6Q9 1-1413 partner limits assumed) above

## CO/C(=C/C(=O)N(C)C(Cc1ccccc1)c1nccs1)CC(C)C(Cl)(Cl)Cl (stereo not shown) [Barbamide]
[1]
  molluscicidal activity: potent mollucuscidal activity

## CCCc1cc2c(cc1C(=O)c1ccc(C(=O)O)cc1)C(C)(C)CCC2(C)C [LG335, 4-[(3-Propyl-5,5,8,8-tetramethyl-5,6,7,8-tetrahydro-2-naphtyl)carbonyl]benzoic Acid]
[2]
  EC50: 1 µM
[3]
  EC50: 0.001 µM
[4]
  EC50: 0.001 µM
[5]; Yeast, I268V, A272V, I310L, F313M, relative to wild type with 10 μM 9cRA
  Eff (efficacy): 60%
[5]; in yeast, I268V;A272V;I310L;F313M
  EC50: 0.04 µM
[5]; in yeast, LG335-I268V;A272V;I310L;F313M ligand receptor pair
  improvement in EC50 over the previous best LG335 receptor, Q275C;I310M;F313I: 25 fold
[6]
  EC50: 0.65 µM
[6]; [27]
  Eff (efficacy): 10%
[7]
  EC50: >2 µM
[7]; [27]
  Eff (efficacy): 10%
[8]
  EC50: 0.68 µM
[8]; [27]
  Eff (efficacy): 30%
[9]
  Eff (efficacy): 70%
[10]
  EC50: 0.61 µM
[10]; [27]
  Eff (efficacy): 10%
[11]
  EC50: 0.53 µM
[11]; [27]
  Eff (efficacy): 20%
[12]
  EC50: 0.53 µM
[12]; [27]
  Eff (efficacy): 30%
[13]; I268L;I310M;F313V, high basal activity
  activity in the screen assay: increase activity at micromolar concentrations
[13]; Yeast, I268L, I310M, F313V
  EC50: 0.61 µM
[13]; Yeast, I268L, I310M, F313V, relative to wild type with 10 μM 9cRA
  Eff (efficacy): 20%
[14]
  EC50: 0.44 µM
[14]; [27]
  Eff (efficacy): 10%
[15]; Yeast, I268A, I310S, F313V, L436F (second line, r11)
  EC50: 0.43 µM
[15]; read-out: Eff (efficacy)
  Emax: 50%
[16]; HEK 293
  EC50: 0.03 µM
[16]; [28]
  Eff (efficacy): 50%
[17]; HEK 293
  EC50: 0.001 µM
[17]; [28]
  Eff (efficacy): 30%
[18]; HEK 293
  EC50: 0.18 µM
[18]; [28]
  Eff (efficacy): 30%
[19]; HEK 293
  EC50: 0.14 µM
[19]; [28]
  Eff (efficacy): 20%
[20]; HEK293, read-out: Eff (efficacy)
  Emax: 20%
[20]; HEK 293, I268A, I310S, F313V, L436F (second line, r11)
  EC50: 0.69 µM
[21]
  EC50: > 10 µM
[21]; Yeast, WT, maximum increase in activation relative to wild type with 10 μM 9cRA
  Eff (efficacy): 10%
[22]
  EC50: 0.47 µM
[22]; [27]
  Eff (efficacy): 60%
[23]
  EC50: 0.3 µM
[23]; HEK 293, WT, relative to wild type with 10 μM 9cRA
  Eff (efficacy): 10%

## C/C1=C\[C@H](C)C[C@H](C)OC(=O)C[C@H](c2ccc(O)cc2)NC(=O)[C@@H](Cc2c(Br)[nH]c3ccccc23)N(C)C(=O)[C@H](C)NC(=O)[C@@H](C)C1 [Jaspamide]
[24]
  insecticidal activity: insecticidal
[25]
  activity against bacteria: completely inactive
[26]
  fungicidal activity: fungicidal activity
